According to ChEMBL document CHEMBL4406876, “Design, synthesis and biological research of novel N-phenylbenzamide-4-methylamine acridine derivatives as potential topoisomerase I/II and apoptosis-inducing agents” (Bioorg Med Chem Lett, 2019):
Active and inactive are the calls of the source. No cut-off for these calls is given here.

Legend:
K562 = assay: Antiproliferative against human K562 cells incubated for 72 hrs by MTT assay; assay type: functional, cell-based; conditions: K562, 72 h
U-937 = assay: Antiproliferative against human U937 cells incubated for 72 hrs by MTT assay; assay type: functional, cell-based; conditions: U-937, 72 h
CCRF-CEM [1] = assay: Antiproliferative against human CCRF-CEM cells incubated for 72 hrs by MTT assay; assay type: functional, cell-based
[2] = target: DNA topoisomerase II (Homo sapiens) (UniProt P11388+Q02880); assay: Inhibition of DNA topoisomerase-2 (unknown origin) at 100 uM relative to control; assay type: protein assay
CCRF-CEM [3] = assay: Induction of apoptosis in human CCRF-CEM cells assessed as increase in necrotic cells incubated for 48 hrs by Annexin V-FITC/PI staining based fluorescence based assay; assay type: functional, cell-based
[4] = target: T1, DNA topoisomerase 1 (Homo sapiens) (UniProt P11387); assay: Inhibition of DNA topoisomerase-1 (unknown origin) at 100 uM relative to control
T1 sequence (whole entry): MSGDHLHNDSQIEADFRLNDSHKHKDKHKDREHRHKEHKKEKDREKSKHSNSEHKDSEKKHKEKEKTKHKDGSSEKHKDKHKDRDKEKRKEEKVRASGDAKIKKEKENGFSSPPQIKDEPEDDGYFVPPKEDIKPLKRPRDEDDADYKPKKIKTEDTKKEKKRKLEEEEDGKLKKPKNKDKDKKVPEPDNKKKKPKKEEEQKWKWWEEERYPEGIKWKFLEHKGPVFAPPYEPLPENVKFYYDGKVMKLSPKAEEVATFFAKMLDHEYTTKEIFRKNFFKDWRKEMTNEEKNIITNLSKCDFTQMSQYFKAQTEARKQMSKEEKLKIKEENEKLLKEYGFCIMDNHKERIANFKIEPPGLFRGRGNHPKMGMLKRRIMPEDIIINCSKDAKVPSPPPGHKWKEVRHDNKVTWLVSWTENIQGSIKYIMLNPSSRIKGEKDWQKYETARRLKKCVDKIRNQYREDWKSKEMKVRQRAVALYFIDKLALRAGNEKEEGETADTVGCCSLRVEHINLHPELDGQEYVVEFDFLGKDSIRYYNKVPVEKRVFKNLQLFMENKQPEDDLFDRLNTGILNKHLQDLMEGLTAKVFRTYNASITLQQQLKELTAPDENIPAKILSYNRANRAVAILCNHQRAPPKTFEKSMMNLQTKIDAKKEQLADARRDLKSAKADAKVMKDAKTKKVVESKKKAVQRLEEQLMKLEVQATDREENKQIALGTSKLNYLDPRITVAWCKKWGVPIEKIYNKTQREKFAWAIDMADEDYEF

CCRF-CEM [5] = assay: Induction of apoptosis in human CCRF-CEM cells assessed as increase in late apoptotic cells incubated for 48 hrs by Annexin V-FITC/PI staining based fluorescence based assay; assay type: functional, cell-based
CCRF-CEM [6] = assay: Induction of apoptosis in human CCRF-CEM cells at 0.5 to 2 uM incubated for 48 hrs by Hoechst 33342/PI staining based fluorescence based assay; assay type: functional, cell-based
CCRF-CEM [7] = assay: Induction of DNA damage in human CCRF-CEM cells assessed as increase in gammaH2AX incubated for 48 hrs by Western blot analysis; assay type: functional, cell-based
CCRF-CEM [8] = assay: Induction of apoptosis in human CCRF-CEM cells assessed as increase in early apoptotic cells at 2 uM incubated for 48 hrs by Annexin V-FITC/PI staining based fluorescence based assay; assay type: functional, cell-based
CCRF-CEM [9] = assay: Induction of apoptosis in human CCRF-CEM cells assessed as increase in early apoptotic cells at 0.5 uM incubated for 48 hrs by Annexin V-FITC/PI staining based fluorescence based assay; assay type: functional, cell-based
CCRF-CEM [10] = assay: Induction of apoptosis in human CCRF-CEM cells at 0.5 to 2 uM incubated for 48 hrs by Annexin V-FITC/PI staining based fluorescence based assay; assay type: functional, cell-based

| SMILES | IC50 (K562) [nM] | IC50 (U-937) [nM] | IC50 (CCRF-CEM [1]) [nM] | inhibition [2] [%] | further results |
| --- | --- | --- | --- | --- | --- |
| COc1ccc2nc3cc(Cl)ccc3c(Cl)c2c1 | > 10000 | > 10000 | > 10000 |  |  |
| COc1cc([C@@H]2c3cc4c(cc3[C@@H](O[C@@H]3O[C@@H]5CO[C@@H](C)O[C@H]5[C@H](O)[C@H]3O)[C@H]3COC(=O)[C@H]23)OCO4)cc(OC)c1O |  |  |  | 40.9 |  |
| COc1cccc2c(NCc3ccc(C(=O)Nc4ccccc4)cc3)c3ccccc3nc12 | 1430 | 230 | 890 |  |  |
| NCc1ccc(C(=O)Nc2ccccc2)cc1 | > 10000 | > 10000 | > 10000 |  |  |
| COc1ccc2nc3cc(Cl)ccc3c(NCc3ccc(C(=O)Nc4ccccc4)cc3)c2c1 | 2370 | 1800 | 1300 |  |  |
| O=C(Nc1ccccc1)c1ccc(CNc2c3ccccc3nc3ccccc23)cc1 | 1550 | 1320 | 1560 | 24 | Activity (CCRF-CEM [10]): Active; inhibition [4]: 44.9% |

More lines, in order of falling IC50 (K562), values ahead:

| IC50 (K562) [nM] | IC50 (U-937) [nM] | IC50 (CCRF-CEM [1]) [nM] | inhibition [2] [%] | SMILES | further results |
| --- | --- | --- | --- | --- | --- |
| 1320 | 1420 | 900 |  | COc1ccc2c(NCc3ccc(C(=O)Nc4ccccc4)cc3)c3ccccc3nc2c1 |  |
| 1240 | 330 | 820 | 17.8 | COc1ccc2nc3ccccc3c(NCc3ccc(C(=O)Nc4ccccc4)cc3)c2c1 | Activity (CCRF-CEM [3]): Dose-dependent effect; inhibition [4]: 7.2%; Activity (CCRF-CEM [5]): Dose-dependent effect; Activity (CCRF-CEM [6]): Active; Activity (CCRF-CEM [7]): Dose-dependent effect; Activity (CCRF-CEM [8]): Active; Activity (CCRF-CEM [9]): Active |
| 910 | 1490 | 1280 |  | COc1ccccc1NC(=O)c1ccc(CNc2c3ccccc3nc3ccccc23)cc1 |  |
| 710 | 80 | 30 |  | COc1cc(NS(C)(=O)=O)ccc1Nc1c2ccccc2nc2ccccc12 [AMSACRINE] |  |
